In patent publication US10166253B2, “Positively charged co-polymers for use as antimicrobial agents” (priority 2014, dated 2019):

Key:
E. coli (NCTC 10418) = assay: Transmission electron microscopy of treated bacteria; assay type: cell-based, Escherichia coli
Source text: Transmission electron microscopy (TEM) was applied to examine the ultrastructural changes in P. aeruginosa (PAO1), S. aureus (Wood 46) and E. coli (NCTC 10418) induced after treatment with GA and LL-37. […] This critical alteration in the outer membrane of E. coli has previously been described as a disintegration of the outer membrane into micelles and vesicle-like structures (Meincken, M., D. L. Holroyd, and M. Rautenbach, Atomic force microscopy study of the effect of antimicrobial peptides on the cell envelope of Escherichia coli. Antimicrob Agents Chemother, 2005. 49(10): p. 4085-92). […] After incubation with LL-37 and GA, we found burst cells, but this observation was most significant after treatment with LL-37 (FIG. 9). Scale bar, 0.5 μm. Experiments were performed as 2 replicates.

[1] = test system: E. coli (strain NCTC 10418); assay: Colony-forming unit (CFU) counting; assay type: cell-based, Escherichia coli; conditions: 30 minutes at 37° C. in PBS, even at 2 μg/ml
Experimental: Late-log phase E. coli (strain NCTC 10418), P. aeruginosa (strain PAO1, ATCC 15692) and S. aureus (Wood 46, NCTC 7121) were resuspended in PBS and treated with different concentrations of glatiramer acetate (GA) or LL-37 (Innovagen, Lund, Sweden) and incubated on a shaker for 30 minutes at 37° C. Subsequently, a dilution series was performed to achieve a suitable amount of bacteria on the 5% blood agar plates. The 5% blood agar streak plates were cultured at 37° C. for 16 h and the resulting CFUs on the blood agar plates were imaged with a digital camera and counted with the aid of the software ImageJ 1.48v.

[2] = test system: E. coli (strain NCTC 10418); assay: Antimicrobial susceptibility testing by flow cytometry-based assay (LIVE/DEAD BacLight, Syto9/PI); assay type: cell-based, Escherichia coli; conditions: 50 μg/ml, 30 minutes
Experimental: (§1) E. coli (strain NCTC 10418), P. aeruginosa (Strain PAO1) and S. aureus (Wood 46, NCTC 7121) cells were grown in 5 mL of Todd Hewitt Broth medium (THB; Sigma-Aldrich). Bacteria were cultivated at 37° C. for 15 h in a 15 mL tube to obtain late-log phase cultures. Bacterial cultures were pelleted at 3096 g for 10 minutes; the supernatant was discarded and bacteria were resuspended in phosphate-buffered saline (PBS) supplemented with 40 mg/ml human albumin to mimic chemical properties of blood. Bacteria were diluted to a standardized inoculum of 10^9 CFU/mL.
(§2) Bacteria were treated with GA, LL-37, Piperacillin/Tazobactam or Vancomycin in varying concentrations, i.e. 50, 25, 10 or 2 μg/ml, for 30 minutes. As a positive control, bacteria were treated with 7% isopropanol. Hereafter, bacteria were pelleted at 3096 g for 10 minutes; the supernatant was discarded and bacteria were resuspended in PBS. The antimicrobial effect was tested in a well-established and widely used flow cytometry-based assay (LIVE/DEAD® BacLight™ Bacterial Viability and Counting Kit (L34856), Molecular Probes/Invitrogen) according to manufacturer's manual.
(§3) For each bacteria, the flow cytometry-based assay was repeated four times.
Flow cytometry was used to determine the antimicrobial activity of GA and LL-37. The flow cytometry diagrams show the results after treatment with 50 μg/ml LL-37, GA, piperacillin/tazobactam, 7% isopropanol and the untreated control. […] This gating strategy was primarily applied to avoid counting beads in the upper right corner of the FS-SS. […] Thus, a two-color fluorescence assay of bacterial viability, including PI and Syto9 staining, was applied. Syto9 stains all bacteria in a population, i.e. those with intact and those with damaged membranes. In contrast, propidium iodide (PI) penetrates only bacteria with damaged membranes, thereby making quantification of bacterial viability possible.

[3] = test system: P. aeruginosa (Strain PAO1); assay: as above; assay type: cell-based
Experimental: as §1, §2, §3
The antibacterial effect of GA on the gram-negative strain P. aeruginosa was tested by carrying out an experiment as described in Example 1. […] Although the untreated control stained positive for PI, this seemed to be explained by the capability of intact P. aeruginosa to secrete large quantities of DNA to the extracellular milieu.

P. aeruginosa (PAO1) = assay: Antimicrobial activity in human serum and plasma (flow cytometry, PI/Syto9); assay type: cell-based, Pseudomonas aeruginosa; conditions: P. aeruginosa PAO1 ~10^8 cells/ml
Source text: It has been reported that the antimicrobial activity of antimicrobial peptides are inhibited by their binding to different factors in human plasma (Wang, Y., et al., Apolipoprotein A-I binds and inhibits the human antibacterial/cytotoxic peptide LL-37. J Biol Chem, 1998. 273(50): p. 33115-8), serum and is influenced by pH and ion composition (Johansson, J., et al., Conformation-dependent antibacterial activity of the naturally occurring human peptide LL-37. J Biol Chem, 1998. 273(6): p. 3718-24). To investigate the potential of GA for systemic application, bacterial isolates of P. aeruginosa (PAO1, ˜10^8 cells/ml) were incubated with increasing concentrations of GA and compared to LL-37. Bacterial survival and enumeration was evaluated by a flow cytometry bead standard and stained with propidium iodide and Syto9 following procedures as previously described above in the antimicrobial susceptibility testing by flow cytometry-based assay. […] All experiments were performed as four replicates.

[4] = test system: S. aureus (Wood 46, NCTC 7121); assay: Antimicrobial susceptibility testing by flow cytometry-based assay (LIVE/DEAD BacLight, Syto9/PI); assay type: cell-based, Staphylococcus aureus; conditions: 30 minutes
Experimental: as §1, §2, §3

[5] = within the 30 minutes of treatment

Substance: Glatiramer acetate [GA]
- ultrastructural changes (TEM, in words) (E. coli (NCTC 10418)): Signs of damage to the bacterial membrane
- antibacterial effect by CFU counting (in words) [1]: enhanced ability to kill E. coli
- percentage of bacteria testing positive for PI [2]: 17.7%
- percentage of bacteria testing positive for Syto-9 [2]: 78.3%
- antimicrobial activity (in words) [3, 5]: more potent than when treating bacteria with 7% isopropanol
- decreased bacterial inoculum [3, 5]: ~75%
- increased PI positivity ([3]; within the 30 minutes of treatment (FIG. 4 overview)): ~50%
- antimicrobial activity in human plasma and serum (in words) (P. aeruginosa (PAO1)): retains antimicrobial activity
- percentage of bacteria testing positive for PI [4]: 12.1%
